Experimental data from patent US20190070170A1, “METHOD OF S[…]-1” (Macau University of Science and Technology, priority 2017, published 2019).

Experiments:
[1] = tested on: NF-κB; assay: EMSA for NF-κB DNA binding activity in LPS-stimulated rat peritoneal macrophages; format: cell-based; settings: LPS-induced, nuclear extract
Experimental: Nuclear extract proteins (10 μg) for the assay of the DNA binding activity of NF-κB were tested with a biotin-labeled oligonucleotide bio-NF-κB probe according to manufacturer's instructions of EMSA kit (Viagene Biotech).

[2] = tested on: COX-2; assay: COX-2 protein expression in LPS-activated rat peritoneal macrophages (western blotting); format: cell-based; settings: SIN or DEX 1 h, LPS 24 h
Experimental: (§1) Sprague-Dawley (SD) rats from the University of Hong Kong were housed in cages with free access to food and water. Peritoneal macrophages of SD rats were isolated as described in Liu J. et al., Pharmacological research 2016, 111:303-315. Briefly, untreated rats were sacrificed and after laparotomy, about 50 ml cold sterile Hank's balanced salt solution (HBSS) was used to lavage the peritoneal cavity at twice, and then the peritoneal lavage fluid was collected and centrifuged at 1500 rpm for 10 min. The cell pellets was suspended at a density 1.5×10^6 cells/ml in pre-hearted DMEM medium with 10% heat-inactivated FBS, penicillin G (100 units/ml), streptomycin ([…]), and L-glutamine (2 mM), followed by seeding in 6-well plates at a density of 4.5×10^6 cells and incubation for 2 h. Then the medium were discarded to remove the non-adherent cells. The adherent cells were further washed for two times with pre-heated DMEM medium to remove floating cells. Next, cells were pre-treated with various concentration of SIN for 1 h, followed by stimulation with LPS (1 μg/ml).
(§2) Whole-cell and nuclear proteins were obtained using RIPA lysis buffer (CST, Boston, Mass., USA) and Nuclear and Cytoplasmic Extraction Reagents kit from Thermo Scientific (Asheville, N.C., USA), respectively. […] The levels of protein expression were measured using Odyssey v3.0 software from Li-COR (Lincoln, Nebr., USA).

[3] = tested on: COX-2; assay: COX-2 mRNA level in LPS-activated rat peritoneal macrophages (qRT-PCR); format: cell-based; settings: SIN 1 h, LPS 12 h
Experimental: Peritoneal macrophages were cultured in 6-well plates and pre-treated with the indicated concentration of SIN for 1 h, followed by LPS stimulation for another 12 h. RNA was isolated from rat peritoneal macrophages using the Nucleospin RNA kit from Macherey-Nagel (Duren, Germany) according to the manufacturer's instructions. RNA concentration derived from each sample was assessed by NanoDrop UV Spectrophotometer from Thermo Scientific (Asheville, N.C., USA). RNA (1 μg) was reverse transcripted using the transcriptor universal cDNA master reagents from Roche Applied Science (Mannheim, Germany). Gene expression quantification was performed by a high-productivity real-time quantitative PCR ViiA™ 7 machine using SYBR Green reagents from Roche Applied Science (Mannheim, Germany) according a standard protocol recommended by the manufacturer and the cycling parameters were as followed: uracil removal incubation (50° C., 2 min), polymerase activation (95° C., 10 min), 40 cycles of denaturation (95° C., 15 s) and annealing/extension (60° C., 30 s) and a melt curve stage (95° C., 15 s, 60° C., 1 min and 95° C., 15 s).
Rat primers used in the research are listed as follows:
• The levels of gene expression were quantitated using the 2(−Delta Delta C(T)) method. […]

[4] = tested on: cPLA2; assay: cPLA2 protein expression in LPS-activated rat peritoneal macrophages (western blotting); format: cell-based; settings: SIN or DEX 1 h, LPS 24 h
Experimental: as §1, §2

[5] = tested on: p-cPLA2; assay: p-cPLA2 protein expression in IL-1β-stimulated A549 cells (western blotting); format: cell-based; settings: IL-1β with SIN or DEX for 48 h
Experimental: RAW264.7 and A549 cell lines were obtained from American Type Culture Collection (ATCC, Manassas, Va., USA) and maintained in DMEM (RAW264.7) or 1640 (A549) medium containing 10% FBS (Gibco-BRL, Grand Island, N.Y., USA) and antibiotics at 37° C. in a humidified atmosphere containing 5% CO2. RAW264.7 cells were plated in 6-well plates at a density of 4×10^5 cells and incubated for 24 h, then the cells were pretreated with different concentrations of SIN for 1 h before stimulating with LPS (100 ng/ml). A549 cells were seeded in 6-well plates at a density of 1×10^5 cells and incubated for 24 h, followed by pretreatment with SIN. A549 cells were then stimulated by IL-1β (1 ng/ml).
Whole-cell and nuclear proteins were obtained using RIPA lysis buffer (CST, Boston, Mass., USA) and Nuclear and Cytoplasmic Extraction Reagents kit from Thermo Scientific (Asheville, N.C., USA), respectively. For immunoblotting, proteins from whole-cell, cytoplasm, nuclear, and microsomal fractions were separated on SDS-PAGE, then transferred onto a nitrocellulose membrane from GE Healthcare Life Sciences (Buckinghamshire, UK), and incubated with 5% skimmed milk at room temperature for 1 h. […] The levels of protein expression were measured using Odyssey v3.0 software from Li-COR (Lincoln, Nebr., USA).

[6] = tested on: collagen-induced arthritis; assay: Collagen-II induced arthritis (CIA) in DBA/1 mice; format: in vivo; settings: CIA DBA/1 mice; SIN 100 mg/kg i.p.
Experimental: Female DBA/1 mice (8-9 weeks old) were purchased from Shanghai SiLaike (SLAC) Laboratory Animal Company (Shanghai, China) and fed with a chow diet and water at room temperature. Equal volume of complete Freuend's adjuvant (CFA) and Bovine Type II Collagen (CII) were mixed and emulsified using a homogenizer (13,000 rpm) on ice. On day 0, DBA/1 mice were immunized by injecting 50 μl of CII in CFA in the tail, approximately 2 cm from the base of the tail. After injection, on day 18, mice with one or more than one paw inflamed were chosen and randomly divided into model group, SIN (100 mg/kg, i.p.) treatment group and MTX (10 mg/kg/week, p.o) treatment group, the mice without immunization were used as normal control. On day 21, these chosen mice were boosted through injecting the same volume of CII in IFA same as the day 0 immunization procedure. The incidence of joint swelling in each group was recorded every two days since drug treatment. Paw thickness (at the ankle joints of the hind paws) of each mouse was obtained by using vernier caliper to record the severity of paw swelling.
Arthritis score of each paw was evaluated every two days during experiment with the following criteria: • 0: no evidence of erythema and swelling; • 1: erythema and mild swelling confirmed to the tarsals or ankle joint; • 2: erythema and mild swelling extending from the ankle to the tarsal joints; • 3: erythema and moderate swelling extending from the ankle to metatarsal joints; and • 4: erythema and severe swelling encompass the ankle, foot and digits, or ankylosis of the limb.
The score of each paw was summed for a score of 0-16 for each mouse. Mice were then sacrificed and hind paws were removed and freshly frozen in liquid nitrogen and stored at −80° C. until used.

With `COC1=C[C@@H]2[C@@H]3Cc4ccc(OC)c(O)c4[C@]2(CCN3C)CC1=O` [SIN, sinomenine] the “NF-κB DNA binding activity (EMSA)” value [1] was “capable of suppressing”, the COX-2 protein expression [2] was “did not suppress” and the “gene level of COX-2 (mRNA)” value [3] was “did not suppress”. For the same molecule, the cPLA2 expression [4] was “no influences”, the p-cPLA2 protein expression [5] was “did not suppress” and the “arthritic scores (total of four paws)” value [6] was “decreased”. For the same molecule, the “average thickness of the inflamed hind paws” value [6] was “decreased average thickness” and the “onset of joint swelling (incidence of arthritis)” value [6] was “delayed the onset of the joint swelling”.
